In brackets after ≈: the same amount, converted by molar mass.

Data set [1] in a line: pKa of carvedilol free base. The format is physicochemical.
Data set [2] is described as follows: physchem. Particulars: 25 °C, water, thermodynamic from solid.
Data set [3] is described as follows: physchem.
A short description of data set [4]: Aqueous solubility at 25° C. of carvedilol and its salt forms. The settings on record: water.

In turn, `COc1ccccc1OCCNCC(O)COc1cccc2[nH]c3ccccc3c12` (stereo not shown) [Carvedilol] gave a pKa in data set [1] of 7.6. In the data set “physchem [2]”, this molecule gave a solubility at 1 hr of 9.8 µg/mL (≈ 24.1 µM). This molecule registered a solubility at 24 hr in the data set “physchem [2]” of 11.6 µg/mL (≈ 28.5 µM). Besides, the solubility in the data set “physchem [3]” (pH 4, aqueous buffer) was about 200 µg/mL (≈ 492 µM); in the data set “physchem [3]” (pH 9, aqueous buffer), under 1 µg/mL.
Regarding Hydrochloride, the “aqueous solubility (in words)” value in data set [4] is on record as “poorly soluble in water”. The “Aqueous Solubility” value amounted to 1650 µg/mL in data set [4] (time 0.5 hr), 1630 µg/mL in data set [4] (time 1 hr), 1370 µg/mL in data set [4] (time 4 hr) and 1060 µg/mL in data set [4] (time 70 hr).

As usually defined, the pKa is the pH at which an ionisable group is half protonated. A higher pKa goes with a weaker acid or stronger base. A word on the solubility: it is the concentration that dissolves in the medium under given conditions. The low end stands for little dissolved substance, the high end for much dissolved substance. As a reminder, the Aqueous Solubility is how much of the substance goes into solution per volume.

Values taken from patent US6515010B1 (SmithKline Beecham Corporation, priority 1999, dated 2003).
